Values joined by “and” are separate entries in the source; they are usually repeats but may differ in a detail not shown here. Equal values may be shown once. Marks after values point to notes of the source that are not given here.
Test system: breast tumours in FBV/N female mice, transgenic for HER-2/neu
Test: Antitumour activity on breast tumours of HER-2/neu transgenic mice
Format: in vivo
Settings: for antitumour activity compared with Tamoxifen: FVB mice transgenic for HER-2/neu with breast tumours; for Average tumor volume, % of change to the initial value / Average total tumour volume, % of change to the initial value: Day 28 vs Day 0
Description: The study was carried out on female FVB mice transgenic for HER-2/neu of the conventional category, the strain being obtained from the mouse bank Charles River Laboratories (Italy).
Duration of the administration course was 27-28 days.
The control groups were given the olive oil (placebo).
The macroscopically detectable tumor nodes were measured in the animals once per week during the weighing process.

[1] = medicament 2 mg/kg daily i.g., Day 0
[2] = medicament 2 mg/kg daily i.g., Day 7
[3] = medicament 2 mg/kg daily i.g., Day 14
[4] = medicament 2 mg/kg daily i.g., Day 21
[5] = medicament 2 mg/kg daily i.g., Day 28
[6] = medicament 2 mg/kg, end of observation
[7] = medicament 20 mg/kg daily i.g., Day 0
[8] = medicament 20 mg/kg daily i.g., Day 7
[9] = medicament 20 mg/kg daily i.g., Day 14
[10] = medicament 20 mg/kg daily i.g., Day 21
[11] = medicament 20 mg/kg daily i.g., Day 28
[12] = medicament 20 mg/kg, end of observation

SMILES: C[C@H]1Oc2cc(OS(N)(=O)=O)ccc2C2=C1[C@@H]1CCCC(=O)[C@@]1(C)CC2 [medicament, 3-O-sulfamoyloxy-7β-methyl-O-homo-6-oxaestra-1,3,5(10),8(9)-tetraen]
- antitumour activity compared with Tamoxifen: not lower than that of the reference durg, Tamoxifen
- antitumour activity compared with Tamoxifen (listed as agent): more effectively than clinically used Tamoxifen
- antitumour effect on the model (dose range 2.0, 20.0 and 100.0 mg/kg): no pronounced antitumour effect
- Average volume of new tumours at the end of the observation period (medicament 2 mg/kg): 0.33 cm^3
- effect on frequency of stabilisations or volume of newly developing tumours (medicament 2.0 mg/kg): had no effect
- relative change in the total volume of tumours versus control values (medicament 2.0 mg/kg): greater than the control values
- Average volume of tumors existing at the beginning of the experiment (M) [1]: 0.27 cm^3
- Relative change of the average total volume of tumours to that of Day −1 (M) [1]: 0%
- Average total volume of tumours in mice (M) (medicament 2.0 mg/kg daily i.g., Day 0): 1.24 cm^3
- Average volume of tumors existing at the beginning of the experiment (M) [2]: 0.42 cm^3
- Relative change of the average total volume of tumours to that of Day −1 (M) [2]: 59%
- Average total volume of tumours in mice (M) (medicament 2.0 mg/kg daily i.g., Day 7): 1.91 cm^3
- Average volume of tumors existing at the beginning of the experiment (M) [3]: 0.6 cm^3
- Relative change of the average total volume of tumours to that of Day −1 (M) [3]: 131%
- Average total volume of tumours in mice (M) (medicament 2.0 mg/kg daily i.g., Day 14): 2.71 cm^3
- Average volume of tumors existing at the beginning of the experiment (M) [4]: 0.77 cm^3
- Relative change of the average total volume of tumours to that of Day −1 (M) [4]: 210%
- Average total volume of tumours in mice (M) (medicament 2.0 mg/kg daily i.g., Day 21): 3.50* cm^3
- Average volume of tumors existing at the beginning of the experiment (M) [5]: 1.11 cm^3
- Relative change of the average total volume of tumours to that of Day −1 (M) [5]: 347*** %
- Average total volume of tumours in mice (M) (medicament 2.0 mg/kg daily i.g., Day 28): 5.04 cm^3
- Average tumor volume, % of change to the initial value (medicament 2 mg/kg daily i.g.): 311%
- Average total tumour volume, % of change to the initial value (medicament 2.0 mg/kg daily i.g.): 307%
- Absolute number of new tumours [6]: 30
- frequency of stabilisations of tumours present at initiation of treatment [6]: 5%
- TGI (average tumor volume) (medicament 2 mg/kg, vs Control-3, Day 0): 29%
- TGI (average total tumour volume) (medicament 2.0 mg/kg, vs Control-3, Day 0): 45%
- TGI (average tumor volume) (medicament 2 mg/kg, vs Control-3, Day 7): 16%
- TGI (average total tumour volume) (medicament 2.0 mg/kg, vs Control-3, Day 7): 37%
- TGI (average tumor volume) (medicament 2 mg/kg, vs Control-3, Day 14): 14%
- TGI (average total tumour volume) (medicament 2.0 mg/kg, vs Control-3, Day 14): 35%
- TGI (average tumor volume) (medicament 2 mg/kg, vs Control-3, Day 21): 9%
- TGI (average total tumour volume) (medicament 2.0 mg/kg, vs Control-3, Day 21): 31%
- TGI (average tumor volume) (medicament 2 mg/kg, vs Control-3, Day 28): −14%
- TGI (average total tumour volume) (medicament 2.0 mg/kg, vs Control-3, Day 28): 13%
- Average volume of new tumours at the end of the observation period (medicament 20 mg/kg): 0.19±0.04 cm^3 and 0.19 cm^3
- Average total volume of tumours in mice (M) [7]: 0.41 cm^3
- Average volume of tumors existing at the beginning of the experiment (M) [7]: 0.18 cm^3
- Relative change of the average total volume of tumours to that of Day −1 (M) (medicament 20.0 mg/kg daily i.g., Day 0): 0%
- Average total volume of tumours in mice (M) [8]: 0.62 cm^3
- Average volume of tumors existing at the beginning of the experiment (M) [8]: 0.28 cm^3
- Relative change of the average total volume of tumours to that of Day −1 (M) (medicament 20.0 mg/kg daily i.g., Day 7): 55%
- Average total volume of tumours in mice (M) [9]: 0.94 cm^3
- Average volume of tumors existing at the beginning of the experiment (M) [9]: 0.43 cm^3
- Relative change of the average total volume of tumours to that of Day −1 (M) (medicament 20.0 mg/kg daily i.g., Day 14): 145%
- Average total volume of tumours in mice (M) [10]: 1.18 cm^3
- Average volume of tumors existing at the beginning of the experiment (M) [10]: 0.54 cm^3
- Relative change of the average total volume of tumours to that of Day −1 (M) (medicament 20.0 mg/kg daily i.g., Day 21): 209** %
- Average total volume of tumours in mice (M) [11]: 1.22 cm^3
- Average volume of tumors existing at the beginning of the experiment (M) [11]: 0.55 cm^3
- Relative change of the average total volume of tumours to that of Day −1 (M) (medicament 20.0 mg/kg daily i.g., Day 28): 227*** %
- Average total tumour volume, % of change to the initial value (medicament 20 mg/kg daily i.g.): 198%
- Average tumor volume, % of change to the initial value (medicament 20 mg/kg daily i.g.): 206%
- Absolute number of new tumours [12]: 22
- frequency of stabilisations of tumours present at initiation of treatment [12]: 9%
- volume of new tumours, less than the control (Control-2) value [12]: 32%

Reference: patent US12213959B2, “Use of 3-O-sulfamoyloxy-7β-methyl-d-homo-6-oxaestra-1,3,5(10),8(9)-tetraen-17a-one to treat breast cancer” (priority 2018, dated 2025)
